Test results from patent US12012404B2, “Pyrimidoheterocyclic compounds and application thereof” (D3 BIO (WUXI) CO., LTD., priority 2020, dated 2024).

Key:
[1] = tested on: KRAS^G12C-mutated H358 cells; assay: H358 cell assay: inhibition of proliferation (CellTiter-Glo, 5 days); assay type: cell-based; settings: Homo sapiens, 120 h; NCI-H358 cells, 5 days incubation
Experimental: Compounds were assayed for IC50 of inhibition of proliferation of KRAS^G12C-mutated H358 cells.
The main instrument used in this assay was a Nivo multi-label analyzer (PerkinElmer).
2.4 Method of the Assay: • 1) NCI-H358 cells were inoculated in a white 96-well plate, and each well contained 80 μL of cell suspension and 4000 NCI-H358 cells. […] The assay was carried out in duplicate. 78 μL of medium was added to the intermediate plate, and then 2 μL of the serially diluted compound was transferred to each well of the intermediate plate according to the corresponding position. After mixing well, 20 μL per well was transferred to the cell plate. […] The cell plate was incubated in a carbon dioxide incubator for 5 days. Another cell plate was prepared, and the signal value of the cell plate was read on the day of compound addition as the maximum value (Max value in the equation below) to participate in data analysis. 25 μL of cell viability chemiluminescence detection reagent was added to each well of the cell plate, and the plate was incubated at room temperature for 10 minutes to stabilize the luminescence signal. A multi-label analyzer was used for reading the plate. • 3) […]

[2] = tested on: KRAS^G12C-mutated MIA-PA-CA-2 cells; assay: Inhibition of proliferation of KRAS^G12C-mutated MIA-PA-CA-2 cells (CellTiter-Glo, 72 h); assay type: cell-based, human; settings: Homo sapiens, MIA PaCa-2, 72 h incubation
Experimental: Compounds were assayed for IC50 of inhibition of proliferation of KRAS^G12C-mutated MIA-PA-CA-2 cells.
The main reagent used in this assay included CellTiter-Glo (Promega, Cat. No. G7573).
The main instrument used in this assay was PerkinElmer EnVision multi-function microplate reader.
1.4 Method of the Assay • 1) Adherent cells were digested with trypsin to form a cell suspension, and the cell suspension was counted for later use. • 2) An appropriate amount of cells was added into a centrifuge tube, and a cell culture medium was added to make up the required volume; then the cells were plated to a 96-well plate at a final density of 2000 cells/well, 100 μL of culture medium. • 3) After incubating for 24 hr, the compound was formulated to 10 mM with DMSO, and serially diluted 3-fold with DPBS (Dulbecco's Phosphate Buffered Saline) to 9 points; 10 μL was added to each well in duplicate. 10 μL of DPBS per well was added to the assay control wells (Con). • 4) On the same day, 50 μL of CellTiter Glo was added to another cell culture plate without compounds, and the fluorescence value was read by EnVision. […] The fluorescence value was read by EnVision. • 6) Data analysis: The inhibition rate of cells in each well was calculated according to the following equation: […]

[3] = Protein binding rate by equilibrium dialysis, SD rats plasma; assay type: in vitro ADME; settings: rat, plasma; SD rats, as listed in PK Table 8; read-out: Plasma protein unbound rate PPB (Unbound %)
Experimental: (§1) Purpose of the assay: Protein binding rate of the assay compounds in plasma of CD-1 mice, SD rats, beagle dogs, cynomolgus monkeys and human was determined by equilibrium dialysis.
(§2) Procedure of the assay: Plasma samples with a compound concentration of 2 μM were prepared using plasma of the above five species, placed in a 96-well equilibrium dialysis device, and dialyzed with phosphate buffer solution at 37±1° C. for 4 hours. Warfarin was used as the control compound in this assay. The concentrations of the assay compounds in plasma and dialysis buffer were determined by LC-MS/MS method.

[4] = Protein binding rate by equilibrium dialysis, CD-1 mice plasma; assay type: in vitro ADME; settings: CD-1, mouse, plasma; mice, as listed in PK Table 9; read-out: Plasma protein unbound rate PPB (Unbound %)
Experimental: as §1, §2

C=C(F)C(=O)N1CCN(c2nc(OC[C@@]34CCCN3C[C@H](F)C4)nc3c2COC(c2c(F)c(N)cc(C)c2C(F)(F)F)C3)C[C@@H]1CC#N (stereo partly shown) [Compound 17]
IC50 [1]: 0.6 nM
IC50 [2]: 0.44 nM
fraction unbound at 4 h, 2 μM [3]: 0.048
fraction unbound at 4 h, 2 μM [4]: 0.0154
